In PubChem BioAssay AID1259407 (Chemical Carcinogenesis Research Information System (CCRIS), 2018):
Activity calls are given as the source filed them. The rule behind the calls is not given here.

Test system: CCRIS mutagenicity, Ames/micronucleus/aberration tests
Test: CCRIS mutagenicity studies
[1] = Test System: AMES SALMONELLA TYPHIMURIUM, Strain/Indicator: TA98, Metabolic Activation: NONE, Method: STANDARD PLATE
[2] = Test System: AMES SALMONELLA TYPHIMURIUM, Strain/Indicator: TA98, Metabolic Activation: RAT, LIVER, S-9, AROCLOR 1254, Method: STANDARD PLATE
[3] = Test System: AMES SALMONELLA TYPHIMURIUM, Strain/Indicator: TA100, Metabolic Activation: NONE, Method: STANDARD PLATE
[4] = Test System: AMES SALMONELLA TYPHIMURIUM, Strain/Indicator: TA100, Metabolic Activation: RAT, LIVER, S-9, AROCLOR 1254, Method: STANDARD PLATE
[5] = Test System: AMES SALMONELLA TYPHIMURIUM, Strain/Indicator: TA1535, Metabolic Activation: NONE, Method: STANDARD PLATE

Structure (SMILES): CCCCC(CC)COC(=O)CCCCC(=O)O (configuration not stated)
- mutagenic call (Test System: AMES SALMONELLA TYPHIMURIUM, Strain/Indicator: TA97, Metabolic Activation: NONE, Method: STANDARD PLATE): inactive; negative
- mutagenic call (Test System: AMES SALMONELLA TYPHIMURIUM, Strain/Indicator: TA97, Metabolic Activation: RAT, LIVER, S-9, AROCLOR 1254, Method: STANDARD PLATE): inactive; negative
- mutagenic call (Test System: AMES SALMONELLA TYPHIMURIUM, Strain/Indicator: TA97, Metabolic Activation: RAT, LIVER, S-9, DI(2-ETHYLHEXYL)PHTHALATE, Method: STANDARD PLATE): inactive; negative
- mutagenic call (Test System: AMES SALMONELLA TYPHIMURIUM, Strain/Indicator: TA98, Metabolic Activation: HAMSTER, LIVER, S-9, AROCLOR 1254 (10%), Method: PREINCUBATION): inactive; negative
- mutagenic call (Test System: AMES SALMONELLA TYPHIMURIUM, Strain/Indicator: TA98, Metabolic Activation: NONE, Method: PREINCUBATION): inactive; negative
- mutagenic call [1]: inactive; negative
- mutagenic call (Test System: AMES SALMONELLA TYPHIMURIUM, Strain/Indicator: TA98, Metabolic Activation: RAT, LIVER, S-9, AROCLOR 1254 (10%), Method: PREINCUBATION): inactive; negative
- mutagenic call [2]: inactive; negative
- mutagenic call (Test System: AMES SALMONELLA TYPHIMURIUM, Strain/Indicator: TA98, Metabolic Activation: RAT, LIVER, S-9, DI(2-ETHYLHEXYL)PHTHALATE, Method: STANDARD PLATE): inactive; negative
- mutagenic call (Test System: AMES SALMONELLA TYPHIMURIUM, Strain/Indicator: TA100, Metabolic Activation: HAMSTER, LIVER, S-9, AROCLOR 1254 (10%), Method: PREINCUBATION): inactive; negative
- mutagenic call (Test System: AMES SALMONELLA TYPHIMURIUM, Strain/Indicator: TA100, Metabolic Activation: NONE, Method: PREINCUBATION): inactive; negative
- mutagenic call [3]: inactive; negative
- mutagenic call (Test System: AMES SALMONELLA TYPHIMURIUM, Strain/Indicator: TA100, Metabolic Activation: RAT, LIVER, S-9, AROCLOR 1254 (10%), Method: PREINCUBATION): inactive; negative
- mutagenic call [4]: inactive; negative
- mutagenic call (Test System: AMES SALMONELLA TYPHIMURIUM, Strain/Indicator: TA100, Metabolic Activation: RAT, LIVER, S-9, DI(2-ETHYLHEXYL)PHTHALATE, Method: STANDARD PLATE): inactive; negative
- mutagenic call (Test System: AMES SALMONELLA TYPHIMURIUM, Strain/Indicator: TA102, Metabolic Activation: NONE, Method: STANDARD PLATE): inactive; negative
- mutagenic call (Test System: AMES SALMONELLA TYPHIMURIUM, Strain/Indicator: TA102, Metabolic Activation: RAT, LIVER, S-9, AROCLOR 1254, Method: STANDARD PLATE): inactive; negative
- mutagenic call (Test System: AMES SALMONELLA TYPHIMURIUM, Strain/Indicator: TA102, Metabolic Activation: RAT, LIVER, S-9, DI(2-ETHYLHEXYL)PHTHALATE, Method: STANDARD PLATE): inactive; negative
- mutagenic call (Test System: AMES SALMONELLA TYPHIMURIUM, Strain/Indicator: TA1535, Metabolic Activation: HAMSTER, LIVER, S-9, AROCLOR 1254 (10%), Method: PREINCUBATION): inactive; negative
- mutagenic call (Test System: AMES SALMONELLA TYPHIMURIUM, Strain/Indicator: TA1535, Metabolic Activation: NONE, Method: PREINCUBATION): inactive; negative
- mutagenic call (Test System: AMES SALMONELLA TYPHIMURIUM, Strain/Indicator: TA1535, Metabolic Activation: RAT, LIVER, S-9, AROCLOR 1254 (10%), Method: PREINCUBATION): inactive; negative
- mutagenic call (Test System: AMES SALMONELLA TYPHIMURIUM, Strain/Indicator: TA1537, Metabolic Activation: HAMSTER, LIVER, S-9, AROCLOR 1254 (10%), Method: PREINCUBATION): inactive; negative
- mutagenic call (Test System: AMES SALMONELLA TYPHIMURIUM, Strain/Indicator: TA1537, Metabolic Activation: NONE, Method: PREINCUBATION): inactive; negative
- mutagenic call (Test System: AMES SALMONELLA TYPHIMURIUM, Strain/Indicator: TA1537, Metabolic Activation: RAT, LIVER, S-9, AROCLOR 1254 (10%), Method: PREINCUBATION): inactive; negative

Structure (SMILES): O[C@@H]1[C@@H]2O[C@@H]2c2c(cc3ccc4cccc5c6ccccc6c2c3c45)[C@H]1O
- mutagenic call (Test System: AMES SALMONELLA TYPHIMURIUM, Strain/Indicator: TA97, Metabolic Activation: NONE, Method: PREINCUBATION (EXPOSURE IN MEDIUM WITH KCL)): active; positive
- mutagenic call (Test System: AMES SALMONELLA TYPHIMURIUM, Strain/Indicator: TA97, Metabolic Activation: NONE, Method: PREINCUBATION (EXPOSURE IN MEDIUM WITHOUT KCL)): active; positive
- mutagenic call (Test System: AMES SALMONELLA TYPHIMURIUM, Strain/Indicator: TA98, Metabolic Activation: NONE, Method: PREINCUBATION (EXPOSURE IN MEDIUM WITH KCL)): active; positive
- mutagenic call (Test System: AMES SALMONELLA TYPHIMURIUM, Strain/Indicator: TA98, Metabolic Activation: NONE, Method: PREINCUBATION (EXPOSURE IN MEDIUM WITHOUT KCL)): active; positive
- mutagenic call (Test System: AMES SALMONELLA TYPHIMURIUM, Strain/Indicator: TA100, Metabolic Activation: NONE, Method: PREINCUBATION (EXPOSURE IN MEDIUM WITH KCL)): active; positive
- mutagenic call (Test System: AMES SALMONELLA TYPHIMURIUM, Strain/Indicator: TA100, Metabolic Activation: NONE, Method: PREINCUBATION (EXPOSURE IN MEDIUM WITHOUT KCL)): active; positive
- mutagenic call (Test System: AMES SALMONELLA TYPHIMURIUM, Strain/Indicator: TA104, Metabolic Activation: NONE, Method: PREINCUBATION (EXPOSURE IN MEDIUM WITH KCL)): active; positive
- mutagenic call (Test System: AMES SALMONELLA TYPHIMURIUM, Strain/Indicator: TA104, Metabolic Activation: NONE, Method: PREINCUBATION (EXPOSURE IN MEDIUM WITHOUT KCL)): active; positive
- mutagenic call (Test System: CHINESE HAMSTER V-79, Strain/Indicator: V-79/6-THIOGUANINE, Metabolic Activation: NONE): active; positive

Structure (SMILES): CCCCCCC1CO1 (configuration not stated)
- mutagenic call [3]: inactive; negative
- mutagenic call [5]: inactive; negative
- mutagenic call (Test System: UDS RAT HEPATOCYTES, Strain/Indicator: THY INCORP, Metabolic Activation: NONE): inactive; negative

Structure (SMILES): C=CCCCCCCCCC
- mutagenic call (Test System: AMES SALMONELLA TYPHIMURIUM, Strain/Indicator: TA98, Metabolic Activation: MOUSE, LIVER, S-9, Method: STANDARD PLATE): inactive; negative
- mutagenic call [1]: inactive; negative
- mutagenic call (Test System: AMES SALMONELLA TYPHIMURIUM, Strain/Indicator: TA100, Metabolic Activation: MOUSE, LIVER, S-9, Method: STANDARD PLATE): inactive; negative
- mutagenic call [3]: inactive; negative
- mutagenic call [5]: inactive; negative
- mutagenic call (Test System: AMES SALMONELLA TYPHIMURIUM, Strain/Indicator: TA1538, Metabolic Activation: NONE, Method: STANDARD PLATE): inactive; negative

Structure (SMILES): COc1nc(N)nc2c1ncn2[C@H]1C[C@H](O)[C@@H](COP(=O)(O)OP(=O)(O)OP(=O)(O)O)O1
- mutagenic call (Test System: CHINESE HAMSTER OVARY, Strain/Indicator: CHO-K1 (HGPRT), Metabolic Activation: NONE): inactive; negative

Structure (SMILES): O=C(c1ccccc1)C1OC1c1ccc([N+](=O)[O-])cc1 (configuration not stated)
- mutagenic call [1]: inactive; negative
- mutagenic call [2]: inactive; negative
- mutagenic call [3]: inactive; negative
- mutagenic call [4]: inactive; negative
